# Reference: PubChem BioAssay AID2060513 (Molecular Pharmacology Branch, DTP, NCI, 2025)
# Tested on: 299254-011-R-J1-PDC complex spheroids viability
# Assay: Anticancer human tumor 299254-011-R-J1-PDC patient-derived melanoma cell line growth inhibition [GQUAD]
# Settings: for IC50: curve of first compound; for viability, T/C: stronger effect = lower value
# Summary of the method: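 Multi-cell-type spheroids of tumor cells with HUVEC and mesenchymal stem cells, treated with drug combinations. Concentrations descend in half-log steps from near clinical Cmax, or from 10 microM where Cmax is unknown; viability read-out.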
# [1] = second compound 0.0316 µM, first compound 0.0316 µM
# [2] = second compound 0.0316 µM, first compound 0.1 µM
# [3] = second compound 0.0316 µM, first compound 0.316 µM
# [4] = second compound 0.0316 µM, first compound 1 µM
# [5] = second compound 0.0316 µM, first compound 3.16 µM
# [6] = second compound 0.0316 µM, first compound 10 µM
# [7] = second compound 0.1 µM, first compound 0.0316 µM
# [8] = second compound 0.1 µM, first compound 0.1 µM
# [9] = second compound 0.1 µM, first compound 0.316 µM
# [10] = second compound 0.1 µM, first compound 1 µM
# [11] = second compound 0.1 µM, first compound 3.16 µM
# [12] = second compound 0.1 µM, first compound 10 µM
# [13] = second compound 0.316 µM, first compound 0.0316 µM
# [14] = second compound 0.316 µM, first compound 0.1 µM
# [15] = second compound 0.316 µM, first compound 0.316 µM
# [16] = second compound 0.316 µM, first compound 1 µM
# [17] = second compound 0.316 µM, first compound 3.16 µM
# [18] = second compound 0.316 µM, first compound 10 µM
# [19] = second compound 1 µM, first compound 0.0316 µM
# [20] = second compound 1 µM, first compound 0.1 µM
# [21] = second compound 1 µM, first compound 0.316 µM
# [22] = second compound 1 µM, first compound 1 µM
# [23] = second compound 1 µM, first compound 3.16 µM
# [24] = second compound 1 µM, first compound 10 µM
# [25] = second compound 3.16 µM, first compound 0.0316 µM
# [26] = second compound 3.16 µM, first compound 0.1 µM
# [27] = second compound 3.16 µM, first compound 0.316 µM
# [28] = second compound 3.16 µM, first compound 1 µM
# [29] = second compound 3.16 µM, first compound 3.16 µM
# [30] = second compound 3.16 µM, first compound 10 µM
# [31] = second compound 10 µM, first compound 0.0316 µM
# [32] = second compound 10 µM, first compound 0.1 µM
# [33] = second compound 10 µM, first compound 0.316 µM
# [34] = second compound 10 µM, first compound 1 µM
# [35] = second compound 10 µM, first compound 3.16 µM
# [36] = second compound 10 µM, first compound 10 µM
# 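Note: spheroids exposed to the agents for seven days before readout.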
# 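Throughout, for viability, T/C: percent viability relative to DMSO vehicle control wells = 100%.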
compound,measurement,setting,value
Cc1cccc(N(C)C(=O)C2C(O)CCN2c2nc(C)cc(C(F)(F)F)c2C#N)c1 (stereo not drawn) + Cc1cnc(CNC(=O)c2c(=O)c3ccc(N4CCCN(C)CC4)nc3n3c2sc2ccccc23)cn1,IC50,second compound 0.0316 µM,> 10 µM
same,IC50,second compound 0.1 µM,> 10 µM
same,IC50,second compound 0.316 µM,> 10 µM
same,IC50,second compound 1 µM,> 10 µM
same,IC50,second compound 3.16 µM,> 10 µM
same,IC50,second compound 10 µM,> 10 µM
same,"viability, T/C",[1],120%
same,"viability, T/C",[2],115%
same,"viability, T/C",[3],117%
same,"viability, T/C",[4],89.3%
same,"viability, T/C",[5],87.6%
same,"viability, T/C",[6],112%
same,"viability, T/C",[7],88.9%
same,"viability, T/C",[8],112%
same,"viability, T/C",[9],95.6%
same,"viability, T/C",[10],92.9%
same,"viability, T/C",[11],120%
same,"viability, T/C",[12],100%
same,"viability, T/C",[13],94.3%
same,"viability, T/C",[14],96.5%
same,"viability, T/C",[15],93.2%
same,"viability, T/C",[16],93.8%
same,"viability, T/C",[17],107%
same,"viability, T/C",[18],114%
same,"viability, T/C",[19],91.8%
same,"viability, T/C",[20],94%
same,"viability, T/C",[21],103%
same,"viability, T/C",[22],85.9%
same,"viability, T/C",[23],92.1%
same,"viability, T/C",[24],83.5%
same,"viability, T/C",[25],71.9%
same,"viability, T/C",[26],75.2%
same,"viability, T/C",[27],95.3%
same,"viability, T/C",[28],85.8%
same,"viability, T/C",[29],86.5%
same,"viability, T/C",[30],85.5%
same,"viability, T/C",[31],82%
same,"viability, T/C",[32],71.9%
same,"viability, T/C",[33],64.8%
same,"viability, T/C",[34],84.4%
same,"viability, T/C",[35],63.5%
same,"viability, T/C",[36],52%
O=c1[nH]cc(F)c(=O)[nH]1 + Cc1[nH]c2ccc(F)cc2c1-c1nc2c3cccnc3c3ncccc3c2[nH]1,IC50,second compound 0.0316 µM,> 10 µM
same,IC50,second compound 0.1 µM,> 10 µM
same,IC50,second compound 0.316 µM,> 10 µM
same,IC50,second compound 1 µM,> 10 µM
same,IC50,second compound 3.16 µM,> 10 µM
same,IC50,second compound 10 µM,> 10 µM
same,"viability, T/C",[1],131%
same,"viability, T/C",[2],114%
same,"viability, T/C",[3],113%
same,"viability, T/C",[4],121%
same,"viability, T/C",[5],116%
same,"viability, T/C",[6],125%
same,"viability, T/C",[7],120%
same,"viability, T/C",[8],105%
same,"viability, T/C",[9],110%
same,"viability, T/C",[10],123%
same,"viability, T/C",[11],98.3%
same,"viability, T/C",[12],123%
same,"viability, T/C",[13],104%
same,"viability, T/C",[14],99.6%
same,"viability, T/C",[15],119%
same,"viability, T/C",[16],100%
same,"viability, T/C",[17],97.5%
same,"viability, T/C",[18],97.8%
same,"viability, T/C",[19],88.3%
same,"viability, T/C",[20],98.6%
same,"viability, T/C",[21],106%
same,"viability, T/C",[22],108%
same,"viability, T/C",[23],116%
same,"viability, T/C",[24],106%
same,"viability, T/C",[25],99.3%
same,"viability, T/C",[26],107%
same,"viability, T/C",[27],96%
same,"viability, T/C",[28],113%
same,"viability, T/C",[29],90.4%
same,"viability, T/C",[30],107%
same,"viability, T/C",[31],96.4%
same,"viability, T/C",[32],96.5%
same,"viability, T/C",[33],92.1%
same,"viability, T/C",[34],102%
same,"viability, T/C",[35],98.9%
same,"viability, T/C",[36],88%
C=CC(=O)N1CCN(c2nc(=O)n(-c3c(C)ccnc3C(C)C)c3nc(-c4c(O)cccc4F)c(F)cc23)C(C)C1 (stereo not drawn) + CN(C)c1ccc(Nc2c3ccc(NC(=O)CCN4CCCC4)cc3nc3cc(NC(=O)CCN4CCCC4)ccc23)cc1,IC50,second compound 0.0316 µM,> 10 µM
same,IC50,second compound 0.1 µM,> 10 µM
same,IC50,second compound 0.316 µM,> 10 µM
same,IC50,second compound 1 µM,> 10 µM
same,IC50,second compound 3.16 µM,> 10 µM
same,IC50,second compound 10 µM,> 10 µM
same,"viability, T/C",[1],93.8%
same,"viability, T/C",[2],68.9%
same,"viability, T/C",[3],73.1%
same,"viability, T/C",[4],56.3%
same,"viability, T/C",[5],64.4%
same,"viability, T/C",[6],66.6%
same,"viability, T/C",[7],79.4%
same,"viability, T/C",[8],80.2%
same,"viability, T/C",[9],57%
same,"viability, T/C",[10],60.4%
same,"viability, T/C",[11],74.7%
same,"viability, T/C",[12],74.3%
same,"viability, T/C",[13],76.2%
same,"viability, T/C",[14],81.3%
same,"viability, T/C",[15],62.3%
same,"viability, T/C",[16],68.2%
same,"viability, T/C",[17],67.3%
same,"viability, T/C",[18],65.4%
same,"viability, T/C",[19],81.1%
same,"viability, T/C",[20],74%
same,"viability, T/C",[21],71.8%
same,"viability, T/C",[22],67.4%
same,"viability, T/C",[23],80%
same,"viability, T/C",[24],65%
same,"viability, T/C",[25],71.2%
same,"viability, T/C",[26],83.3%
same,"viability, T/C",[27],75.8%
same,"viability, T/C",[28],60.4%
same,"viability, T/C",[29],73%
same,"viability, T/C",[30],79.1%
same,"viability, T/C",[31],74.4%
same,"viability, T/C",[32],74.8%
same,"viability, T/C",[33],74.7%
same,"viability, T/C",[34],68.2%
same,"viability, T/C",[35],69.7%
same,"viability, T/C",[36],76.8%
COc1cccc2c1C(=O)c1c(O)c3c(c(O)c1C2=O)CC(O)(C(=O)CO)CC3OC1CC(N)C(O)C(C)O1 (stereo not drawn) + Cc1[nH]c2ccc(F)cc2c1-c1nc2c3cccnc3c3ncccc3c2[nH]1,IC50,second compound 0.0316 µM,4.67 µM
same,IC50,second compound 0.1 µM,4.19 µM
same,IC50,second compound 0.316 µM,5.32 µM
same,IC50,second compound 1 µM,4.92 µM
same,IC50,second compound 3.16 µM,2.99 µM
same,IC50,second compound 10 µM,2.56 µM
same,"viability, T/C",[1],100%
same,"viability, T/C",[2],91.5%
same,"viability, T/C",[3],82.2%
same,"viability, T/C",[4],90.5%
same,"viability, T/C",[5],62.4%
same,"viability, T/C",[6],25.7%
same,"viability, T/C",[7],91.4%
same,"viability, T/C",[8],91.7%
same,"viability, T/C",[9],88%
same,"viability, T/C",[10],66.4%
same,"viability, T/C",[11],64.7%
same,"viability, T/C",[12],23.8%
same,"viability, T/C",[13],94.2%
same,"viability, T/C",[14],92.1%
same,"viability, T/C",[15],93.3%
same,"viability, T/C",[16],94.7%
same,"viability, T/C",[17],74.4%
same,"viability, T/C",[18],20.4%
same,"viability, T/C",[19],88.9%
same,"viability, T/C",[20],86.9%
same,"viability, T/C",[21],94.2%
same,"viability, T/C",[22],95.3%
same,"viability, T/C",[23],69.1%
same,"viability, T/C",[24],19.3%
same,"viability, T/C",[25],89.9%
same,"viability, T/C",[26],91.7%
same,"viability, T/C",[27],90.1%
same,"viability, T/C",[28],70.3%
same,"viability, T/C",[29],50.2%
same,"viability, T/C",[30],13.4%
same,"viability, T/C",[31],90.2%
same,"viability, T/C",[32],91.3%
same,"viability, T/C",[33],82.6%
same,"viability, T/C",[34],83.3%
same,"viability, T/C",[35],42.6%
same,"viability, T/C",[36],11.9%
